Experimental data as given in ChEMBL document CHEMBL4359854, “Repurposing mosloflavone/5,6,7-trimethoxyflavone-resveratrol hybrids: Discovery of novel p38-α MAPK inhibitors as potent interceptors of macrophage-dependent production of proinflammatory mediators” (Eur J Med Chem, 2019).
Activity calls are given as the source filed them. The calls are words filed in the database; no cut-off is given here.

Columns and labels:
[1] = Cytotoxicity against LPS-induced mouse RAW264.7 cells assessed as cell viability at 1 uM incubated for 24 hrs by MTT assay relative to control; assay type: cell-based; conditions: LPS-induced RAW264.7 cells, read-out: Activity
RAW264.7 [2] = test: Anti-inflammatory activity in mouse RAW264.7 cells assessed as inhibition of LPS-induced IL-6 production at 1 uM preincubated for 1 hr followed by LPS addition and measured after 24 hrs by EIA relative to control; assay type: functional
RAW264.7 [3] = test: Anti-inflammatory activity in mouse RAW264.7 cells assessed as inhibition of LPS-induced PGE2 production at 1 uM preincubated for 1 hr followed by LPS addition and measured after 24 hrs by EIA relative to control; assay type: functional
RAW264.7 [4] = test: Anti-inflammatory activity in mouse RAW264.7 cells assessed as inhibition of LPS-induced IL-1beta production at 1 uM preincubated for 1 hr followed by LPS addition and measured after 24 hrs by EIA relative to control; assay type: functional
RAW264.7 [5] = test: Anti-inflammatory activity in mouse RAW264.7 cells assessed as inhibition of LPS-induced NO production at 1 uM preincubated for 1 hr followed by LPS addition and measured after 24 hrs by Griess reagent-based assay relative to control; assay type: functional
RAW264.7 [6] = test: Anti-inflammatory activity in mouse RAW264.7 cells assessed as inhibition of LPS-induced TNFalpha production at 1 uM preincubated for 1 hr followed by LPS addition and measured after 24 hrs by EIA relative to control; assay type: functional
RAW264.7 [7] = test: Anti-inflammatory activity in mouse RAW264.7 cells assessed as inhibition of LPS-induced PGE2 production preincubated for 1 hr followed by LPS addition and measured after 24 hrs by EIA; assay type: functional, cell-based
RAW264.7 [8] = test: Anti-inflammatory activity in mouse RAW264.7 cells assessed as inhibition of LPS-induced PGE2 production at 0.2 uM preincubated for 1 hr followed by LPS addition and measured after 24 hrs by EIA; assay type: functional, cell-based

SMILES | viability at 24 h, 1 µM [1] [%] | inhibition at 1 µM (RAW264.7 [2]) [%] | inhibition at 1 µM (RAW264.7 [3]) [%] | inhibition at 1 µM (RAW264.7 [4]) [%] | inhibition at 1 µM (RAW264.7 [5]) [%] | inhibition at 1 µM (RAW264.7 [6]) [%] | IC50 (RAW264.7 [7]) [µM] | inhibition (RAW264.7 [7]) | inhibition (RAW264.7 [8])
COc1cccc(C(=O)Nc2cccc(-c3cc(=O)c4c(O)c(OC)c(OC)cc4o3)c2)c1 | 109 | -6.92 | 35.4 | 35.8 | 6.46 | 33.8 |  |  | 
COc1ccccc1C(=O)Nc1cccc(-c2cc(=O)c3c(OC)c(OC)c(OC)cc3o2)c1 | 99.8 | -15.8 | 33.9 | 25.2 | 1.11 | -83.9 |  |  | 
COc1ccc(NC(=O)c2cccc(-c3cc(=O)c4c(O)c(OC)c(OC)cc4o3)c2)cc1 | 92.8 | 10.2 | 3.44 | 13.1 | -10.3 | -0.1 |  |  | 
COc1cccc(NC(=O)c2cccc(-c3cc(=O)c4c(OC)c(OC)c(OC)cc4o3)c2)c1 | 84.2 | 7.66 | -11.4 | 82.6 | 12.3 | 34.1 |  |  | 
COc1cc2oc(-c3cccc(C(=O)Nc4ccc5c(c4)OCO5)c3)cc(=O)c2c(OC)c1OC | 92 | 25.7 | 16.1 | -54.4 | 17 | 9.94 |  |  | 
COc1cc2oc(-c3cccc(NC(=O)c4ccc5c(c4)OCO5)c3)cc(=O)c2c(OC)c1OC | 116 | -9.56 | 17.1 | 38.2 | 7.13 | -40.6 |  |  | 
COc1cc2oc(-c3cccc(NC(=O)c4ccc5c(c4)OCO5)c3)cc(=O)c2c(O)c1OC | 104 | -6.67 | 49.3 | 11.6 | 7.46 | -12.1 |  |  | 
COc1cc2oc(-c3cccc(C(=O)Nc4ccccc4)c3)cc(=O)c2c(OC)c1OC | 90.6 | 12.5 | -10.9 | 86.8 | 13 | 24.2 |  |  | 
COc1ccc(C(=O)Nc2cccc(-c3cc(=O)c4c(O)c(OC)c(OC)cc4o3)c2)cc1 | 105 | -7.54 | 52.7 | 34.6 | 6.52 | 48.2 |  |  | 
COc1cc2oc(-c3ccc(NC(=O)c4ccc5c(c4)OCO5)cc3)cc(=O)c2c(OC)c1OC | 63 |  |  |  |  |  |  |  | 
COc1cccc(C(=O)Nc2cccc(-c3cc(=O)c4c(OC)c(OC)c(OC)cc4o3)c2)c1 | 117 | -52.5 | 2.62 | 75.6 | 19.9 | -88 |  |  | 
COc1cc2oc(-c3ccc(NC(=O)c4ccccc4)cc3)cc(=O)c2c(OC)c1OC | 109 | -23.2 | 7 | -30.2 | 9.71 | -8.22 |  |  | 
COc1ccc(C(=O)Nc2ccc(-c3cc(=O)c4c(OC)c(OC)c(OC)cc4o3)cc2)cc1 | 92.4 | -40.9 | 36.8 | -2.33 | 3.26 | 27.4 |  |  | 
COc1ccccc1NC(=O)c1cccc(-c2cc(=O)c3c(O)c(OC)c(OC)cc3o2)c1 | 99.4 | -21.4 | 50.5 | -2.41 | 7.19 | 36.1 | 2.38 | Dose-dependent effect | Active
COc1cc2oc(-c3cccc(NC(=O)c4ccccc4)c3)cc(=O)c2c(OC)c1OC | 95.8 | -17 | -11.3 | 16.5 | 3.31 | 20.9 |  |  | 
COc1ccc(C(=O)Nc2cccc(-c3cc(=O)c4c(OC)c(OC)c(OC)cc4o3)c2)cc1 | 102 | -12.5 | 6.21 | 12.2 | 11.1 | 20.4 |  |  | 
COc1cccc(C(=O)Nc2ccc(-c3cc(=O)c4c(OC)c(OC)c(OC)cc4o3)cc2)c1 | 111 | -47.5 | 16.1 | 4.65 | 9.41 | -9.17 |  |  | 
COc1ccccc1NC(=O)c1cccc(-c2cc(=O)c3c(OC)c(OC)c(OC)cc3o2)c1 | 101 | -32.2 | 42.5 | 71.2 | 20.6 | 22.9 | 1.99 | Dose-dependent effect | Active
COc1cccc(NC(=O)c2cccc(-c3cc(=O)c4c(O)c(OC)c(OC)cc4o3)c2)c1 | 103 | 1.96 | 35.4 | 18.5 | 10.9 | 5.85 |  |  | 
COc1cc2oc(-c3cccc(C(=O)Nc4ccc5c(c4)OCO5)c3)cc(=O)c2c(O)c1OC | 97.1 | 12.8 | -2.8 | 27.1 | -5.15 | -7.5 |  |  | 
COc1cc2oc(-c3cccc(C(=O)Nc4ccccc4)c3)cc(=O)c2c(O)c1OC | 103 | -5.27 | 20 | 23.3 | 5.15 | 45.6 |  |  | 
COc1ccc(NC(=O)c2cccc(-c3cc(=O)c4c(OC)c(OC)c(OC)cc4o3)c2)cc1 | 90 | 19.2 | 2.29 | 128 | 6.87 | 25.3 |  |  | 
